The source of these data is BindingDB's records for doi:10.1021/jm5003167 (Bristol-Myers Squibb, 2014).

A short description of experiment [1]: Antagonist activity at CCR1 receptor in human THP1 cells assessed as inhibition of MIP-1alpha induced chemotaxis after 60 mins.
Experiment [2] is described as follows: Antagonist activity at CCR1 receptor in human THP1 cells assessed as inhibition of HCC4-induced chemotaxis after 60 mins.
The nature of experiment [3]: Antagonist activity at CCR1 receptor in human THP1 cells assessed as inhibition of MCP3-induced chemotaxis after 60 mins.
Experiment [4] is described as follows: Antagonist activity at CCR1 receptor in human THP1 cells assessed as inhibition of MPIF1-induced chemotaxis after 60 mins.
Experiment [5] in a line: Antagonist activity at CCR1 receptor in human THP1 cells assessed as inhibition of LKN1-induced chemotaxis after 60 mins.
Experiment [6] is described as follows: Antagonist activity at CCR1 receptor in human THP1 cells assessed as inhibition of MIP-1alpha-induced chemotaxis after 60 mins.
The nature of experiment [7]: Antagonist activity at CCR1 receptor in human THP1 cells assessed as inhibition of HCC1-induced chemotaxis after 60 mins.
Experiment [8] in a line: Antagonist activity at CCR1 receptor in human THP1 cells assessed as inhibition of RANTES-induced chemotaxis after 60 mins.

Regarding `CC[C@@H](C)NC(=O)N[C@@H](C(=O)N1CC[C@](O)(c2ccc(Cl)cc2)C(C)(C)C1)C(C)C` [US8633226, 897], the 50% inhibitory concentration (IC50) (in general, the point on the concentration scale where inhibition reaches its midpoint) in experiment [1] is 6 nM.

Turning to `CC(C)[C@@H](NC(=O)NC[C@H](C)O)C(=O)N1CC[C@](O)(c2ccc(Cl)cc2)C(C)(C)C1`, in experiment [1], the IC50 is 7 nM.

With `CC(C)[C@@H](NC(=O)NC1CCCC1)C(=O)N1CC[C@](O)(c2ccc(Cl)cc2)C(C)(C)C1`, the IC50 in experiment [1] is 3 nM.

With `CC(C)[C@@H](NC(=O)N[C@@H]1CC[C@H](O)C1)C(=O)N1CC[C@](O)(c2ccc(Cl)cc2)C(C)(C)C1`, the IC50 in experiment [1] was determined as 4 nM.

On to `CC(C)[C@@H](NC(=O)N[C@H]1CC[C@@H](O)C1)C(=O)N1CC[C@](O)(c2ccc(Cl)cc2)C(C)(C)C1`, for which the IC50 in experiment [1] is 6 nM.

For the compound `CC(C)[C@@H](NC(=O)N[C@@H]1CC[C@@H](O)C1)C(=O)N1CC[C@](O)(c2ccc(Cl)cc2)C(C)(C)C1`, in experiment [1], the IC50 was found to be 19 nM.

As for `CC(C)[C@@H](NC(=O)NCC(C)(C)O)C(=O)N1CC[C@](O)(c2ccc(Cl)cc2)C(C)(C)C1`, the IC50 amounted to 3.2 nM in experiment [2]; 9.3 nM in experiment [3]; 14 nM in experiment [4]; 16 nM in experiment [5]; 5.5 nM in experiment [6]; 6 nM in experiment [1]. The IC50 came out at 7.5 nM in experiment [7] and 3.3 nM in experiment [8].

`CC(C)[C@@H](NC(=O)N[C@H]1CC[C@H](O)C1)C(=O)N1CC[C@](O)(c2ccc(Cl)cc2)C(C)(C)C1`: in experiment [1], the IC50 was determined as 10 nM.

Take `CC(C)[C@@H](NC(=O)NC[C@@H](C)O)C(=O)N1CC[C@](O)(c2ccc(Cl)cc2)C(C)(C)C1`: the IC50 in experiment [1] is 6 nM.

Take `CC(C)[C@@H](NC(=O)CCC(C)(C)O)C(=O)N1CC[C@](O)(c2ccc(Cl)cc2)C(C)(C)C1`: the half-maximal inhibitory concentration (IC50) in experiment [1] amounted to 22 nM.
